Measured values reported in ChEMBL document CHEMBL1158889, “Antineoplastic agents 500. Narcistatin” (J Nat Prod, 2003).
Converted amounts (≈) assume the structure as drawn.

Assays:
[1] = tested on: P388; assay: Cytotoxicity against mouse P388 cells; format: functional; conditions: for EC50: read-out: ED50 (the source's name)
[2] = tested on: KM-20L2; assay: Cytotoxicity against human KM20L2 cells; format: functional
[3] = tested on: MCF7; assay: Cytotoxicity against human MCF7 cells; format: functional
[4] = tested on: NCI-H460; assay: Cytotoxicity against human NCI-H460 cells; format: functional
[5] = physchem; conditions: aqueous (not further specified)
Description: Aqueous solubility of the compound

[6] = tested on: BXPC-3; assay: Cytotoxicity against human BxPC3 cells; format: functional
[7] = tested on: DU-145; assay: Cytotoxicity against human DU145 cells; format: functional
[8] = tested on: SF-268; assay: Cytotoxicity against human SF268 cells; format: functional
[9] = buffer
Description: Aqueous solubility of the compound

Q: What does the source list for `O=C1N[C@@H]2C(=C[C@H](O)[C@H]3OP(=O)(O)O[C@H]32)c2cc3c(c(O)c21)OCO3` [NARCISTATIN]?
A: EC50 [1]: 0.275 µg/mL (≈ 0.745 µM); GI50 [2]: 0.53 µg/mL (≈ 1.44 µM); GI50 [3]: 0.35 µg/mL (≈ 0.948 µM); GI50 [4]: 0.47 µg/mL (≈ 1.27 µM); solubility [5]: 4000 µg/mL (≈ 10800 µM); GI50 [6]: 0.33 µg/mL (≈ 0.894 µM); GI50 [7]: 0.16 µg/mL (≈ 0.433 µM); GI50 [8]: 0.22 µg/mL (≈ 0.596 µM)

Q: Which EC50 [1] does the source give for `O=C1N[C@@H]2C(=C[C@H](O)[C@H]3OP(=O)(O)O[C@H]32)c2cc3c(c(O)c21)OCO3.c1c[nH]cn1` [IMIDAZOLIUM NARCISTATIN] here?
A: Its EC50 is 0.24 µg/mL.

Q: And the GI50 [2]?
A: The GI50 was over 1 µg/mL.

Q: What about the GI50 [3] of the same molecule?
A: Its GI50 is 0.9 µg/mL.

Q: And the GI50 [4]?
A: Its GI50 is over 1 µg/mL.

Q: What about the solubility [5] of the same molecule?
A: The solubility was 5800 µg/mL.

Q: What about the GI50 [6] of the same molecule?
A: The GI50 was 0.45 µg/mL.

Q: What about the GI50 [7] of the same molecule?
A: The GI50 was 0.44 µg/mL.

Q: What about the GI50 [8] of the same molecule?
A: Its GI50 is 0.38 µg/mL.

Q: For `O=C1N[C@@H]2C(=C[C@H](O)[C@H]3OP(=O)([O-])O[C@H]32)c2cc3c(c(O)c21)OCO3.[Na+]` [SODIUM NARCISTATIN], which EC50 [1] is on record?
A: The EC50 was 0.255 µg/mL.

Q: What about the GI50 [2] of the same molecule?
A: Its GI50 is 0.45 µg/mL.

Q: What about the GI50 [3] of the same molecule?
A: The GI50 was 0.56 µg/mL.

Q: What about the GI50 [4] of the same molecule?
A: The GI50 was over 1 µg/mL.

Q: What about the solubility [5] of the same molecule?
A: Its solubility is 60000 µg/mL.

Q: And the GI50 [6]?
A: The GI50 was 0.32 µg/mL.

Q: What about the GI50 [7] of the same molecule?
A: The GI50 was 0.12 µg/mL.

Q: What about the GI50 [8] of the same molecule?
A: Its GI50 is 0.23 µg/mL.

Q: Which EC50 [1] does the source give for `O=C1N[C@@H]2C(=C[C@H](O)[C@H]3OP(=O)([O-])O[C@H]32)c2cc3c(c(O)c21)OCO3.O=C1N[C@@H]2C(=C[C@H](O)[C@H]3OP(=O)([O-])O[C@H]32)c2cc3c(c(O)c21)OCO3.[Zn+2]` [ZINC NARCISTATIN] here?
A: Its EC50 is 0.0287 µg/mL.

Q: And the GI50 [2]?
A: The GI50 was 0.16 µg/mL.

Q: And the GI50 [3]?
A: The GI50 was 0.14 µg/mL.

Q: What about the GI50 [4] of the same molecule?
A: The GI50 was 0.21 µg/mL.

Q: And the solubility [5]?
A: The solubility was 1700 µg/mL.

Q: What about the GI50 [6] of the same molecule?
A: The GI50 was 0.069 µg/mL.

Q: And the GI50 [7]?
A: The GI50 was 0.016 µg/mL.

Q: And the GI50 [8]?
A: Its GI50 is 0.053 µg/mL.

Q: For `O=C1N[C@@H]2C(=C[C@H](O)[C@H]3OP(=O)(O)O[C@H]32)c2cc3c(c(O)c21)OCO3.c1ccncc1` [PYRIDINIUM NARCISTATIN], which EC50 [1] is on record?
A: Its EC50 is 0.191 µg/mL.

Q: And the GI50 [2]?
A: The GI50 was 0.34 µg/mL.

Q: And the GI50 [3]?
A: The GI50 was 0.27 µg/mL.

Q: What about the GI50 [4] of the same molecule?
A: The GI50 was 0.27 µg/mL.

Q: What about the GI50 [6] of the same molecule?
A: The GI50 was 0.22 µg/mL.

Q: What about the GI50 [7] of the same molecule?
A: The GI50 was 0.17 µg/mL.

Q: And the GI50 [8]?
A: Its GI50 is 0.15 µg/mL.

Q: For `O=C1N[C@@H]2C(=C[C@H](O)[C@H]3OP(=O)([O-])O[C@H]32)c2cc3c(c([O-])c21)OCO3.[Mg+2]` [MAGNESIUM NARCISTATIN], which EC50 [1] is on record?
A: The EC50 was 0.17 µg/mL.

Q: What about the GI50 [2] of the same molecule?
A: The GI50 was 0.31 µg/mL.

Q: And the GI50 [3]?
A: The GI50 was 0.25 µg/mL.

Q: What about the GI50 [4] of the same molecule?
A: The GI50 was 0.29 µg/mL.

Q: And the solubility [5]?
A: Its solubility is under 1500 µg/mL.

Q: And the GI50 [6]?
A: The GI50 was 0.19 µg/mL.

Q: And the GI50 [7]?
A: The GI50 was 0.1 µg/mL.

Q: What about the GI50 [8] of the same molecule?
A: The GI50 was 0.14 µg/mL.

Q: Which EC50 [1] does the source give for `C1CNCCN1.O=C1N[C@@H]2C(=C[C@H](O)[C@H]3OP(=O)(O)O[C@H]32)c2cc3c(c(O)c21)OCO3` [PIPERAZINIUM NARCISTATIN] here?
A: The EC50 was 0.0378 µg/mL.

Q: What about the GI50 [2] of the same molecule?
A: The GI50 was 0.22 µg/mL.

Q: And the GI50 [3]?
A: Its GI50 is 0.17 µg/mL.

Q: What about the GI50 [4] of the same molecule?
A: The GI50 was 0.24 µg/mL.

Q: What about the solubility [5] of the same molecule?
A: The solubility was 1900 µg/mL.

Q: What about the GI50 [6] of the same molecule?
A: Its GI50 is 0.1 µg/mL.

Q: And the GI50 [7]?
A: The GI50 was 0.032 µg/mL.

Q: What about the GI50 [8] of the same molecule?
A: The GI50 was 0.099 µg/mL.

Q: For `C=C[C@@H]1CN2CC[C@@H]1C[C@H]2[C@@H](O)c1ccnc2ccc(OC)cc12.O=C1N[C@@H]2C(=C[C@H](O)[C@H]3OP(=O)(O)O[C@H]32)c2cc3c(c(O)c21)OCO3` [QUINIDINIUM NARCISTATIN], which EC50 [1] is on record?
A: Its EC50 is 0.271 µg/mL.

Q: What about the GI50 [2] of the same molecule?
A: Its GI50 is 0.58 µg/mL.

Q: What about the GI50 [3] of the same molecule?
A: The GI50 was 0.5 µg/mL.

Q: What about the GI50 [4] of the same molecule?
A: The GI50 was 0.77 µg/mL.

Q: What about the GI50 [6] of the same molecule?
A: Its GI50 is 0.31 µg/mL.

Q: What about the GI50 [7] of the same molecule?
A: The GI50 was 0.22 µg/mL.

Q: What about the GI50 [8] of the same molecule?
A: Its GI50 is 0.25 µg/mL.

Q: Which results are given for “MANGANESE NARCISTATIN [listing 1 of 2 here]”?
A: ED50 [1]: 4.27 ×10⁻² µg/ml; GI50 [2]: 0.13 µg/mL; GI50 [3]: 0.07 µg/mL; GI50 [4]: 0.15 µg/mL; GI50 [6]: 0.049 µg/mL; GI50 [7]: 0.034 µg/mL; GI50 [8]: 0.04 µg/mL

Q: For “MANGANESE NARCISTATIN [listing 2 of 2 here]”, which solubility [9] is on record?
A: Its solubility is under 3000 µg/mL.

Q: For `C1COCCN1.O=C1N[C@@H]2C(=C[C@H](O)[C@H]3OP(=O)(O)O[C@H]32)c2cc3c(c(O)c21)OCO3` [MORPHOLINIUM NARCISTATIN], which EC50 [1] is on record?
A: Its EC50 is 0.232 µg/mL.

Q: And the GI50 [2]?
A: The GI50 was 0.54 µg/mL.

Q: And the GI50 [3]?
A: Its GI50 is 0.48 µg/mL.

Q: And the GI50 [4]?
A: Its GI50 is over 1 µg/mL.

Q: What about the solubility [5] of the same molecule?
A: The solubility was over 13000 µg/mL.

Q: What about the GI50 [6] of the same molecule?
A: The GI50 was 0.25 µg/mL.

Q: What about the GI50 [7] of the same molecule?
A: The GI50 was 0.14 µg/mL.

Q: What about the GI50 [8] of the same molecule?
A: Its GI50 is 0.24 µg/mL.

Q: For `O=C1N[C@@H]2C(=C[C@H](O)[C@H]3OP(=O)([O-])O[C@H]32)c2cc3c(c([O-])c21)OCO3.[Ca+2]` [CALCIUM NARCISTATIN], which EC50 [1] is on record?
A: Its EC50 is 0.0223 µg/mL.

Q: What about the GI50 [2] of the same molecule?
A: Its GI50 is 0.059 µg/mL.

Q: And the GI50 [3]?
A: Its GI50 is 0.059 µg/mL.

Q: What about the GI50 [4] of the same molecule?
A: Its GI50 is 0.12 µg/mL.

Q: What about the solubility [5] of the same molecule?
A: The solubility was under 1000 µg/mL.

Q: What about the GI50 [6] of the same molecule?
A: The GI50 was 0.045 µg/mL.

Q: And the GI50 [7]?
A: Its GI50 is 0.0093 µg/mL.

Q: What about the GI50 [8] of the same molecule?
A: Its GI50 is 0.031 µg/mL.

Q: For `O=C1N[C@@H]2C(=C[C@H](O)[C@H]3OP(=O)([O-])O[C@H]32)c2cc3c(c(O)c21)OCO3.[K+]` [POTASSIUM NARCISTATIN], which EC50 [1] is on record?
A: Its EC50 is 0.242 µg/mL.

Q: And the GI50 [2]?
A: The GI50 was 0.56 µg/mL.

Q: And the GI50 [3]?
A: Its GI50 is 0.4 µg/mL.

Q: And the GI50 [4]?
A: Its GI50 is 0.67 µg/mL.

Q: What about the solubility [5] of the same molecule?
A: The solubility was 11000 µg/mL.

Q: What about the GI50 [6] of the same molecule?
A: The GI50 was 0.36 µg/mL.

Q: And the GI50 [7]?
A: The GI50 was 0.26 µg/mL.

Q: And the GI50 [8]?
A: Its GI50 is 0.19 µg/mL.

Q: What does the source list for `O=C1N[C@@H]2C(=C[C@H](O)[C@H]3OP(=O)([O-])O[C@H]32)c2cc3c(c(O)c21)OCO3.[Li+]` [LITHIUM NARCISTATIN]?
A: EC50 [1]: 0.121 µg/mL; GI50 [2]: 0.26 µg/mL; GI50 [3]: 0.31 µg/mL; GI50 [4]: 0.3 µg/mL; solubility [5]: > 50000 µg/mL; GI50 [6]: 0.25 µg/mL; GI50 [7]: 0.13 µg/mL; GI50 [8]: 0.17 µg/mL

Q: With `O=C1N[C@@H]2C(=C[C@H](O)[C@H]3OP(=O)([O-])O[C@H]32)c2cc3c(c(O)c21)OCO3.[Cs+]` [CESIUM NARCISTATIN] as the molecule, how does the EC50 [1] read?
A: Its EC50 is 0.183 µg/mL.

Q: What about the GI50 [2] of the same molecule?
A: Its GI50 is 0.66 µg/mL.

Q: And the GI50 [3]?
A: Its GI50 is 0.62 µg/mL.

Q: And the GI50 [4]?
A: The GI50 was over 1 µg/mL.

Q: What about the solubility [5] of the same molecule?
A: The solubility was under 13000 µg/mL.

Q: What about the GI50 [6] of the same molecule?
A: The GI50 was 0.41 µg/mL.

Q: And the GI50 [7]?
A: The GI50 was 0.13 µg/mL.

Q: What about the GI50 [8] of the same molecule?
A: Its GI50 is 0.33 µg/mL.

Q: Which results are given for `C=C[C@@H]1CN2CC[C@@H]1C[C@@H]2[C@H](O)c1ccnc2ccc(OC)cc12.O=C1N[C@@H]2C(=C[C@H](O)[C@H]3OP(=O)(O)O[C@H]32)c2cc3c(c(O)c21)OCO3` [QUININIUM NARCISTATIN]?
A: EC50 [1]: 0.0342 µg/mL; GI50 [2]: 0.12 µg/mL; GI50 [3]: 0.12 µg/mL; GI50 [4]: 0.17 µg/mL; GI50 [6]: 0.051 µg/mL; GI50 [7]: 0.013 µg/mL; GI50 [8]: 0.045 µg/mL
